Measurements published in ChEMBL document CHEMBL1201862, “PubChem BioAssay data set” (2004).
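48-hour exposure; five concentrations; linearly interpolated endpoints. GI50 is the concentration that inhibits growth by half.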 Active and inactive are the calls of the source. Rule as the data show it: active = GI50 up to about 1.1 µM and inactive = higher.

Tests used:
Assay in all cases: NCI-60 cell line screen, 48 h
[1] = tested on: COLO 205
[2] = tested on: SK-OV-3
[3] = tested on: HL-60
[4] = tested on: HCT-116
[5] = tested on: SN12C
[6] = tested on: UACC-62
[7] = tested on: SW-620
[8] = tested on: RXF 393
[9] = tested on: 786-0
[10] = tested on: NCI-H226
[11] = tested on: UACC-257
[12] = tested on: Malme-3M
[13] = tested on: CCRF-CEM
[14] = tested on: RPMI-8226
[15] = tested on: IGROV-1
[16] = tested on: SR
[17] = tested on: NCI-H460
[18] = tested on: TK-10
[19] = tested on: OVCAR-8

Structure (SMILES) | GI50 [1] | GI50 [2] | GI50 [3] | GI50 [4] | GI50 [5] | GI50 [6] | GI50 [7] | GI50 [8] | GI50 [9] | GI50 [10] | GI50 [11] | GI50 [12] | GI50 [13] | GI50 [14] | GI50 [15] | GI50 [16] | GI50 [17] | GI50 [18] | GI50 [19]
COc1c(Cl)c(Cl)c(OC)c2c1C(=O)C=CC2=O | 16.2 µM (inactive) | 76.7 µM (inactive) | 2.17 µM (inactive) | 17.8 µM (inactive) | 23.4 µM (inactive) | 15.6 µM (inactive) | 16.8 µM (inactive) | 17.1 µM (inactive) | 17.1 µM (inactive) | 33.5 µM (inactive) | 18.1 µM (inactive) | 15.1 µM (inactive) | 3.83 µM (inactive) | 18.2 µM (inactive) | 24.7 µM (inactive) | 10.4 µM (inactive) | 37.8 µM (inactive) | 20.2 µM (inactive) | 17.1 µM (inactive)
C[N+](C)(C)CC(=O)N/N=C(/C(=O)Nc1ccc(Br)cc1)C1C(=O)NC(=O)NC1=O | > 100 µM (inactive) | > 100 µM (inactive) | > 100 µM (inactive) | > 100 µM (inactive) | > 100 µM (inactive) | > 100 µM (inactive) | > 100 µM (inactive) | > 100 µM (inactive) | > 100 µM (inactive) | > 100 µM (inactive) | > 100 µM (inactive) | > 100 µM (inactive) | > 100 µM (inactive) | > 100 µM (inactive) | > 100 µM (inactive) | > 100 µM (inactive) | > 100 µM (inactive) | > 100 µM (inactive) | –
O=C(Cc1ccc(F)cc1)NC1=C(Cl)C(=O)c2ccccc2C1=O | 3.66 µM (inactive) | 4.94 µM (inactive) | 0.0916 µM (active) | 2.36 µM (inactive) | 3.38 µM (inactive) | 2.53 µM (inactive) | 2.24 µM (inactive) | 1.05 µM (active) | 6.58 µM (inactive) | 3.4 µM (inactive) | 2.48 µM (inactive) | 2.77 µM (inactive) | 1.71 µM (inactive) | 0.262 µM (active) | 2.61 µM (inactive) | 0.481 µM (active) | 3.47 µM (inactive) | 6.9 µM (inactive) | 1.92 µM (inactive)
Cc1cc(C)c([O-])c(-[n+]2c(-c3ccccc3)cc(-c3ccccc3)cc2-c2ccccc2)c1 | 3.22 µM (inactive) | 13.7 µM (inactive) | 1.62 µM (inactive) | 1.63 µM (inactive) | 5.09 µM (inactive) | 3.34 µM (inactive) | 4.1 µM (inactive) | 6.73 µM (inactive) | 6.78 µM (inactive) | 10.1 µM (inactive) | 2.94 µM (inactive) | 4.28 µM (inactive) | 1.73 µM (inactive) | 2.79 µM (inactive) | 4.04 µM (inactive) | 2.6 µM (inactive) | 4.48 µM (inactive) | 6.22 µM (inactive) | 4.33 µM (inactive)
C[N+](C)(C)CCc1ccccc1 | > 100 µM (inactive) | > 100 µM (inactive) | > 100 µM (inactive) | > 100 µM (inactive) | > 100 µM (inactive) | > 100 µM (inactive) | > 100 µM (inactive) | > 100 µM (inactive) | > 100 µM (inactive) | > 100 µM (inactive) | > 100 µM (inactive) | > 100 µM (inactive) | > 100 µM (inactive) | > 100 µM (inactive) | > 100 µM (inactive) | > 100 µM (inactive) | > 100 µM (inactive) | > 100 µM (inactive) | > 100 µM (inactive)
N#C/C(C(=S)Nc1ccccc1)=C(/N)N1CCCC1 | > 100 µM (inactive) | – | > 100 µM (inactive) | > 100 µM (inactive) | > 100 µM (inactive) | > 100 µM (inactive) | > 100 µM (inactive) | > 100 µM (inactive) | > 100 µM (inactive) | > 100 µM (inactive) | > 100 µM (inactive) | > 100 µM (inactive) | > 100 µM (inactive) | > 100 µM (inactive) | > 100 µM (inactive) | > 100 µM (inactive) | > 100 µM (inactive) | > 100 µM (inactive) | > 100 µM (inactive)
O=c1[nH]c2[nH]c(-c3ccc(Br)cc3)cc2c2ccccc12 | 34.7 µM (inactive) | – | 13.5 µM (inactive) | 43.2 µM (inactive) | 41.4 µM (inactive) | > 100 µM (inactive) | > 100 µM (inactive) | 24.7 µM (inactive) | 35.6 µM (inactive) | 43.5 µM (inactive) | > 100 µM (inactive) | > 100 µM (inactive) | – | 70.5 µM (inactive) | > 100 µM (inactive) | 11.3 µM (inactive) | > 100 µM (inactive) | 52 µM (inactive) | 23.3 µM (inactive)
COc1cc2c(cc1C)[n+]([O-])c(C)c(C(=O)C/C(=N/NC(=O)C[N+](C)(C)C)C(=O)Nc1cccc(Cl)c1C)[n+]2[O-] | > 100 µM (inactive) | – | > 100 µM (inactive) | > 100 µM (inactive) | > 100 µM (inactive) | > 100 µM (inactive) | > 100 µM (inactive) | > 100 µM (inactive) | > 100 µM (inactive) | > 100 µM (inactive) | > 100 µM (inactive) | > 100 µM (inactive) | 49.9 µM (inactive) | > 100 µM (inactive) | > 100 µM (inactive) | > 100 µM (inactive) | > 100 µM (inactive) | > 100 µM (inactive) | > 100 µM (inactive)
Cc1ccc(C(=O)O/N=C2/CCCC/C2=C\c2ccccc2)cc1 | 95.3 µM (inactive) | > 100 µM (inactive) | 19.7 µM (inactive) | 16.4 µM (inactive) | 80.9 µM (inactive) | 41.5 µM (inactive) | 34 µM (inactive) | 38.6 µM (inactive) | > 100 µM (inactive) | > 100 µM (inactive) | > 100 µM (inactive) | 14.4 µM (inactive) | 29.2 µM (inactive) | 77.8 µM (inactive) | 42.9 µM (inactive) | > 100 µM (inactive) | > 100 µM (inactive) | > 100 µM (inactive) | 37.2 µM (inactive)
CN(C)/N=N/c1ccccc1 | > 100 µM (inactive) | > 100 µM (inactive) | > 100 µM (inactive) | > 100 µM (inactive) | > 100 µM (inactive) | – | > 100 µM (inactive) | > 100 µM (inactive) | > 100 µM (inactive) | > 100 µM (inactive) | – | > 100 µM (inactive) | 22 µM (inactive) | > 100 µM (inactive) | 34.3 µM (inactive) | > 100 µM (inactive) | 98.9 µM (inactive) | > 100 µM (inactive) | > 100 µM (inactive)
C(=C\c1c2oc(-c3ccccc3)cc(-c3ccccc3)c-2c2ccccc12)/C=C1\c2ccccc2-c2c(-c3ccccc3)cc(-c3ccccc3)[o+]c21.[O-][Cl+3]([O-])([O-])[O-] | > 100 µM (inactive) | > 100 µM (inactive) | > 100 µM (inactive) | > 100 µM (inactive) | > 100 µM (inactive) | > 100 µM (inactive) | > 100 µM (inactive) | > 100 µM (inactive) | > 100 µM (inactive) | > 100 µM (inactive) | > 100 µM (inactive) | > 100 µM (inactive) | > 100 µM (inactive) | > 100 µM (inactive) | > 100 µM (inactive) | > 100 µM (inactive) | > 100 µM (inactive) | > 100 µM (inactive) | > 100 µM (inactive)
O=C1/C(=C/c2ccc(Cl)cc2)CCC1CNc1ccc(Cl)cc1 (stereo not drawn) | 2.46 µM (inactive) | – | 0.703 µM (active) | 4.73 µM (inactive) | 10.2 µM (inactive) | 0.41 µM (active) | 2.03 µM (inactive) | 11.6 µM (inactive) | 2.26 µM (inactive) | 28.4 µM (inactive) | 13.8 µM (inactive) | 18 µM (inactive) | 0.828 µM (active) | 0.78 µM (active) | 6.12 µM (inactive) | 2.23 µM (inactive) | 7.96 µM (inactive) | 5.11 µM (inactive) | 2.42 µM (inactive)
CN(C)C=C1C(=O)N(C)C(=O)N(C)C1=O | – | – | > 100 µM (inactive) | > 100 µM (inactive) | > 100 µM (inactive) | > 100 µM (inactive) | > 100 µM (inactive) | > 100 µM (inactive) | > 100 µM (inactive) | > 100 µM (inactive) | > 100 µM (inactive) | > 100 µM (inactive) | > 100 µM (inactive) | > 100 µM (inactive) | – | > 100 µM (inactive) | > 100 µM (inactive) | > 100 µM (inactive) | > 100 µM (inactive)
Cc1ccc(S(=O)(=O)c2ccc(C)cc2[N+](=O)[O-])cc1 | > 100 µM (inactive) | > 100 µM (inactive) | 29.3 µM (inactive) | 71.4 µM (inactive) | > 100 µM (inactive) | 92.3 µM (inactive) | > 100 µM (inactive) | 82 µM (inactive) | > 100 µM (inactive) | > 100 µM (inactive) | 28.8 µM (inactive) | > 100 µM (inactive) | > 100 µM (inactive) | > 100 µM (inactive) | > 100 µM (inactive) | 79.4 µM (inactive) | > 100 µM (inactive) | > 100 µM (inactive) | –
C=C/C=C(\NC(=O)C(Cl)(Cl)Cl)[Si](C)(C)C | > 100 µM (inactive) | > 100 µM (inactive) | > 100 µM (inactive) | > 100 µM (inactive) | > 100 µM (inactive) | > 100 µM (inactive) | > 100 µM (inactive) | > 100 µM (inactive) | > 100 µM (inactive) | > 100 µM (inactive) | > 100 µM (inactive) | > 100 µM (inactive) | > 100 µM (inactive) | > 100 µM (inactive) | > 100 µM (inactive) | > 100 µM (inactive) | > 100 µM (inactive) | > 100 µM (inactive) | > 100 µM (inactive)
